The values that follow come from patent US5631382A, “Fulgimide compound” (Tokuyama Corporation, priority 1994, dated 1997).

Common to all, as to format: physicochemical
Data set [1] is described as follows: Wear life (T 1/2) of polymer plate in xenon fade meter, JIS L0843 and JIS B7754. The conditions noted are these: time until color density decreases to one-half the initial value. The source says:
(§1) 0.04 Parts of fulgimide compounds shown in Table 3, 70 parts of tetraethyleneglycol dimethacrylate, 15 parts of triethyleneglycol dimethacrylate, 10 parts of glycidyl methacrylate, 5 parts of 2-hydroethylmethacrylate and 1 part of perbutyl ND as a polymerization catalyst, were sufficiently mixed together until they were completely dissolved. The mixture solution was poured into a mold constituted by a glass plate and a gasket of an ethylene/vinyl acetate copolymer, and its temperature was elevated in an air oven from 35° C. to 90° C. over a period of 20 hours to effect the polymerization. After the polymerization, the polymer was taken out from the glass mold.
(§2) The obtained polymer plate was irradiated with xenon light by using a Xenon Long-Life Fade Meter FAL-25AX-HC (output: 2.5 KW, source of light: xenon long-life arc lamp) manufactured by Suga Shikenki Co., in order to measure a maximum absorption wavelength in a state of developing color. The initial color tone was observed by eyes, and YI of the samples was measured by using a color-difference meter (Model SM-4) manufactured by Suga Shikenki Co. The wear life (T 1/2) was also measured in compliance with JIS L0843 and JIS B7754. T 1/2 is defined to be the time until the color density decreases down to one-half the initial value when the polymer plate is irradiated with light by using the fade meter.
(§3) For the purpose of comparison, the fulgimide compounds represented by the following formulas (A) to (I) were also used to prepare polymer plates to measure their properties in the same procedure as described above. [drawing 113]

Data set [2] can be described thus: Developed color of polymer plate under xenon light (color density, maximum absorption wavelength). The conditions noted are these: for Color density: 0.04 parts in polymer plate; for λ max: state of developing color, polymer plate.
Description: as §1, §2, §3

A short description of data set [3]: Initial color of polymer plate (visual observation, YI by color-difference meter). The conditions noted are these: for Initial color, visually observed: before irradiation; for Initial color, YI: color-difference meter SM-4.
Description: as §1, §2, §3

`CC1=C2C(=O)N(C(=O)c3ccccc3)C(=O)C2C2(c3occc31)C1CC3CC(C1)CC2C3` (centres unmarked) [Compound 33]: the T1/2 in data set [1] was determined as 100 h. In data set [2], this compound had a Color density of 0.58 and a λ max of 550 nm. In addition, in data set [3], the “Initial color, visually observed” value is reported as “colorless” and the “Initial color, YI” value is 2.16.

Take `CC1=C2C(=O)N(CC#N)C(=O)C2C2(c3sc(-c4ccccc4)cc31)C1CC3CC(C1)CC2C3` (centres unmarked) [D, reference compound]: the T1/2 in data set [1] is 90 h. Also, in data set [2], the Color density is 0.82 and the λ max is given as 570 nm. For the same compound, in data set [3], the “Initial color, visually observed” value was “yellow” and the “Initial color, YI” value amounted to 10.75.

On to `COc1ccc(-c2cc3c(s2)C2(C4CC5CC(C4)CC2C5)C2C(=O)N(CC#N)C(=O)C2=C3C)cc1` (centres unmarked) [E, reference compound], for which the T1/2 in data set [1] stood at 90 h. In data set [2], this compound showed a Color density of 0.90 and a λ max of 580 nm. For the same compound, in data set [3], the “Initial color, visually observed” value was “yellow” and the “Initial color, YI” value was found to be 18.21.

In turn, `CCN1C(=O)C2=C(C)c3cc(-c4ccc(OC)cc4)n(-c4ccccc4)c3C3(C4CC5CC(C4)CC3C5)C2C1=O` (centres unmarked) [F, reference compound] returned a T1/2 in data set [1] of 80 h. In data set [2], this compound returned a Color density of 0.75 and a λ max of 600 nm. For the same compound, in data set [3], the “Initial color, visually observed” value is listed as “yellow” and the “Initial color, YI” value is 19.23.

Consider `CCN1C(=O)C2=C(C)c3cc(-c4ccc(OC)cc4)n(C)c3C3(C4CC5CC(C4)CC3C5)C2C1=O` (centres unmarked) [G, reference compound], for which, in data set [1], the T1/2 came out at 85 h. For the same compound, in data set [2], the Color density is 0.88 and the λ max was 610 nm. Also, in data set [3], the “Initial color, visually observed” value is “yellow” and the “Initial color, YI” value was 19.56.

In data set [1], `CCOC(=O)CN1C(=O)C2=C(C)c3cc(-c4ccc(OC)cc4)n(C)c3C3(C4CC5CC(C4)CC3C5)C2C1=O` (centres unmarked) [H, reference compound] showed a T1/2 of 80 h. For the same compound, in data set [2], the Color density was 0.78 and the λ max stood at 620 nm. Also, in data set [3], the “Initial color, visually observed” value is on record as “yellow” and the “Initial color, YI” value is listed as 19.52.

Regarding `COc1ccc(-c2cc3c(n2C)C2(C4CC5CC(C4)CC2C5)C2C(=O)N(CC#N)C(=O)C2=C3C)cc1` (centres unmarked) [I, reference compound], the T1/2 in data set [1] was determined as 80 h. In data set [2], this compound yielded a Color density of 0.73 and a λ max of 630 nm. In data set [3], the “Initial color, visually observed” value was “yellow” and the “Initial color, YI” value came to 18.89.
